Literature values, collected in patent US9717692B2, “Effervescent formulations comprising dexketoprofen” (priority 2011, dated 2017).

Conditions: Sunshine et al., WO89/046558

SMILES: C[C@H](C(=O)O)c1cccc(C(=O)c2ccccc2)c1 [Dexketoprofen, (+)-(S)-2-(3-Benzoylphenyl) propionic acid]
- effect compared with racemic ketoprofen of the same amount: quicker and stronger effect
